Source: patent publication US10710996B2, “Pyrido-azaheterecydic compound and preparation method and use thereof” (SHANGHAI INSTITUTE OF MATERIA MEDICA, CHINESE ACADEMY OF …, priority 2015, dated 2020)
Read-outs that look alike come from different tables or passages of the source.

Key:
PDGFR-α = PDGFR-α (Homo sapiens, UniProt P16234); assay: Tyrosine kinase inhibition rate (ELISA), PDGFR-α; format: biochemical; details: read-out: Inhibtion rate (%) PDGFR-α
PDGFR-β = PDGFR-β (Homo sapiens, UniProt P09619); assay: Tyrosine kinase inhibition rate (ELISA), PDGFR-β; format: biochemical; details: read-out: Inhibtion rate (%) PDGFR-β
RET = RET (Homo sapiens, UniProt P07949); assay: Tyrosine kinase inhibition rate (ELISA), RET; format: biochemical; details: read-out: Inhibtion rate (%) RET
RET, sequence (P07949 29-1114, species assumed): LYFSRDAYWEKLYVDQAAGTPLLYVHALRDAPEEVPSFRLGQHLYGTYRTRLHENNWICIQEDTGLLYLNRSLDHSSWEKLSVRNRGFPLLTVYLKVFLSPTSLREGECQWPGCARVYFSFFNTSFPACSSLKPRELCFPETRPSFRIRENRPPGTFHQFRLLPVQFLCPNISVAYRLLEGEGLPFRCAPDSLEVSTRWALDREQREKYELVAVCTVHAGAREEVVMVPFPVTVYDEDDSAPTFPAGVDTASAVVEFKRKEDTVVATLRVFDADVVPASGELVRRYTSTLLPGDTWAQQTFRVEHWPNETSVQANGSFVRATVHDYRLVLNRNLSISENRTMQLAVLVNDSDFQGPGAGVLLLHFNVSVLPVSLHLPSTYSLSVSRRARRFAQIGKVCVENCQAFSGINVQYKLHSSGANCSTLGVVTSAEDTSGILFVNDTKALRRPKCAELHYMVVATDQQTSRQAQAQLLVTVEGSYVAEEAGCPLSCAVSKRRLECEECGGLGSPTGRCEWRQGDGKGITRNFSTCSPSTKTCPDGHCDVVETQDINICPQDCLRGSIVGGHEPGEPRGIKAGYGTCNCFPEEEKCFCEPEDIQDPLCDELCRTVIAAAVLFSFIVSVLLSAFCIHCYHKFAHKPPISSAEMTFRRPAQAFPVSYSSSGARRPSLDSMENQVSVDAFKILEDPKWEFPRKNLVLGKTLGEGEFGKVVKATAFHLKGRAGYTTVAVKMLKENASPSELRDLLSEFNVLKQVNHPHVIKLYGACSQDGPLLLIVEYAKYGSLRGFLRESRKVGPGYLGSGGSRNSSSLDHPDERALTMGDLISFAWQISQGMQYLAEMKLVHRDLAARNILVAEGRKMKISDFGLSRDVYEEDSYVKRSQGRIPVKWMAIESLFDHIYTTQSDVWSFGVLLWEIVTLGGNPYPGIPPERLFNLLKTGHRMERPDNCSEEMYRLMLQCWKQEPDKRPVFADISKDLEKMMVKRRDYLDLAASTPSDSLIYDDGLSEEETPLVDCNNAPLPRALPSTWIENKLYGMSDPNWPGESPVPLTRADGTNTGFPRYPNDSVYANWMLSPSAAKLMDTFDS

Flt-1 = Flt-1 (Homo sapiens, UniProt P17948); assay: Tyrosine kinase inhibition rate (ELISA), Flt-1; format: biochemical; details: read-out: Inhibtion rate (%) Flt-1
Flt-1, sequence (P17948 27-1338, species assumed): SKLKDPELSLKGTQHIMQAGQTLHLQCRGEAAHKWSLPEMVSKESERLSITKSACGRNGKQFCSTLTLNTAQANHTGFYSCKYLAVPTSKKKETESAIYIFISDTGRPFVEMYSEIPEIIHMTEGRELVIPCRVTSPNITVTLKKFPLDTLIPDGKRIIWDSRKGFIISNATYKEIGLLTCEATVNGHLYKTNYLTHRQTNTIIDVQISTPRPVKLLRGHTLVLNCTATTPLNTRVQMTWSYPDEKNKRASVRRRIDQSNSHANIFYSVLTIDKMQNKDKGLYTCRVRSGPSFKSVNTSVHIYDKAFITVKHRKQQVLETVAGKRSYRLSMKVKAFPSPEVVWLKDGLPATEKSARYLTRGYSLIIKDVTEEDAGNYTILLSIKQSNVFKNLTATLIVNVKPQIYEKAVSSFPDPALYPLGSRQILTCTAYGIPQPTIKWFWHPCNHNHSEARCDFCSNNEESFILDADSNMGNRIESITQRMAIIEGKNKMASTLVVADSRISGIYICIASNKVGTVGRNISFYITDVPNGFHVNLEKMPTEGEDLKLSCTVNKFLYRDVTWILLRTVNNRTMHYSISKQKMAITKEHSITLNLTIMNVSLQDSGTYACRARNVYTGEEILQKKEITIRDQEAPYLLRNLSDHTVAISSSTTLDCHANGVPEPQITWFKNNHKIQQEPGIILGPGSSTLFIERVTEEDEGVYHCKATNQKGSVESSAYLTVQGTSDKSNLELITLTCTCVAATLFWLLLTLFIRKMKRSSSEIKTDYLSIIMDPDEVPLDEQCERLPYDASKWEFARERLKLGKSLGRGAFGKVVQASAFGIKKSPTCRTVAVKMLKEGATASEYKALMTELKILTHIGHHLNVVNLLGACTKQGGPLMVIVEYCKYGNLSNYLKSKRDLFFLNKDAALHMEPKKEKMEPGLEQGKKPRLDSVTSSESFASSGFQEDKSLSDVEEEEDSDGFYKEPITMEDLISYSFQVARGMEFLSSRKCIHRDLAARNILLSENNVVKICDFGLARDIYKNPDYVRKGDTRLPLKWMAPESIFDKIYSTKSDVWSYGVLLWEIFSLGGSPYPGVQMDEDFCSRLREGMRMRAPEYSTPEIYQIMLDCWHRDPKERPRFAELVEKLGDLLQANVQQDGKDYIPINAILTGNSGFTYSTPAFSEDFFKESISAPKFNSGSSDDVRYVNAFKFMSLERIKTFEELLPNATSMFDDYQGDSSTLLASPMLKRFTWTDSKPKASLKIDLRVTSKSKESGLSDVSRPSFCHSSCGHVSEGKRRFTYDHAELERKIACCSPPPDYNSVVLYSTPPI

[1] = system: human lung cancer EBC-1 xenograft tumor; assay: Growth inhibition of subcutaneous xenograft tumor of human lung cancer EBC-1 in nude mice; format: in vivo; details: 50 mg/kg qd/21 po
Description: EBC-1 cells were subcutaneously inoculated into the armpit on the right side of the nude mice in an amount of 5×10^6/mouse respectively to form xenograft tumor, which were then passaged in nude mice for three generations. Tumor tissue that was growing vigorously was cut into about 1.5 mm^3 under sterile conditions, and subcutaneously inoculated into the armpit on the right side of the nude mice, and the diameter of the xenograft tumor was measured with a vernier caliper. The diameter of the subcutaneous xenograft tumor in nude mice was measured with a vernier caliper. […] The diameter of xenograft tumor was measured twice a week and the body weight of mice was weighed during the whole experiment. The tumor volume (TV) was calculated by the following equation: TV=½×a×b^2, wherein a and b represent the length and width, respectively. The relative tumor volume (RTV) was calculated based on the measured results, and the calculation equation thereof is: RTV=Vt/V0, wherein V0 is the tumor volume measured when the mice were divided in different cages and administered (i.e., d0) and Vt is the tumor volume measured each time.

ErbB4 = ErbB4 (Homo sapiens, UniProt Q15303); assay: Tyrosine kinase inhibition rate (ELISA), ErbB4; format: biochemical; details: read-out: Inhibtion rate (%) ErbB4
ErbB4, sequence (Q15303 26-1308, species assumed): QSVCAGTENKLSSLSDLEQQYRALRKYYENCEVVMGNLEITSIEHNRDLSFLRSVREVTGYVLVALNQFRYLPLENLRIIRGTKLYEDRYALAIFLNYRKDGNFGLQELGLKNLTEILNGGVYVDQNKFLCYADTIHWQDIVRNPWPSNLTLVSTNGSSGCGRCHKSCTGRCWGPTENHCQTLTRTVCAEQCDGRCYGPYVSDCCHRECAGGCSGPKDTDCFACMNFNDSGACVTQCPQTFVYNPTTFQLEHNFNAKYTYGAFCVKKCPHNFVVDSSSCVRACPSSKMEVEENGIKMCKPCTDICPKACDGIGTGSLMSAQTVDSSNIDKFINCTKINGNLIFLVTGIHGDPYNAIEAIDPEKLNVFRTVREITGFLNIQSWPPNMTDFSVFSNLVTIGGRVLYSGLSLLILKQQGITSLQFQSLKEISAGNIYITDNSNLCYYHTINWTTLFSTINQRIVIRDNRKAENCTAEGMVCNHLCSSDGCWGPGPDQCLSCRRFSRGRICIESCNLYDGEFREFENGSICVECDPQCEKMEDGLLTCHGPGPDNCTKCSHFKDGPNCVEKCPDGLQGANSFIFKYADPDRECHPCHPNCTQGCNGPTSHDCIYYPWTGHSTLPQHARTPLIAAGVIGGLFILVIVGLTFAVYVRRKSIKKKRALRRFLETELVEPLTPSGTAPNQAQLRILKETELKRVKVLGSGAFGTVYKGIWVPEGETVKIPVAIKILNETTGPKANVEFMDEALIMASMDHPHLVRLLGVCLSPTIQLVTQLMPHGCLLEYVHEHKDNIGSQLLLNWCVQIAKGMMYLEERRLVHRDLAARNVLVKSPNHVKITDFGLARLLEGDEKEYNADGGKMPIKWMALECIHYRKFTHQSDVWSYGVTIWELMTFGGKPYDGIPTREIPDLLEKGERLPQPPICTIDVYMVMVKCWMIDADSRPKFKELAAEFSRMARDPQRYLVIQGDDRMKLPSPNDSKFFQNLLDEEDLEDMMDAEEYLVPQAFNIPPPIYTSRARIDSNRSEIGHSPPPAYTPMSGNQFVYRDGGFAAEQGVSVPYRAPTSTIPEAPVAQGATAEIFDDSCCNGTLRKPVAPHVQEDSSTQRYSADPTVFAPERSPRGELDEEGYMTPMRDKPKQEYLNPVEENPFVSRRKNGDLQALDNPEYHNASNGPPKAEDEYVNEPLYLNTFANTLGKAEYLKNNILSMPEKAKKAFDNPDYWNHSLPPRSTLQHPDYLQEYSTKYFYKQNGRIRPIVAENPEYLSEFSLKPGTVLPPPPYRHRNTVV

IGF1R = IGF1R (Homo sapiens, UniProt P08069); assay: Tyrosine kinase inhibition rate (ELISA), IGF1R; format: biochemical; details: read-out: Inhibtion rate (%) IGF1R
IGF1R, sequence (P08069 31-1367, species assumed): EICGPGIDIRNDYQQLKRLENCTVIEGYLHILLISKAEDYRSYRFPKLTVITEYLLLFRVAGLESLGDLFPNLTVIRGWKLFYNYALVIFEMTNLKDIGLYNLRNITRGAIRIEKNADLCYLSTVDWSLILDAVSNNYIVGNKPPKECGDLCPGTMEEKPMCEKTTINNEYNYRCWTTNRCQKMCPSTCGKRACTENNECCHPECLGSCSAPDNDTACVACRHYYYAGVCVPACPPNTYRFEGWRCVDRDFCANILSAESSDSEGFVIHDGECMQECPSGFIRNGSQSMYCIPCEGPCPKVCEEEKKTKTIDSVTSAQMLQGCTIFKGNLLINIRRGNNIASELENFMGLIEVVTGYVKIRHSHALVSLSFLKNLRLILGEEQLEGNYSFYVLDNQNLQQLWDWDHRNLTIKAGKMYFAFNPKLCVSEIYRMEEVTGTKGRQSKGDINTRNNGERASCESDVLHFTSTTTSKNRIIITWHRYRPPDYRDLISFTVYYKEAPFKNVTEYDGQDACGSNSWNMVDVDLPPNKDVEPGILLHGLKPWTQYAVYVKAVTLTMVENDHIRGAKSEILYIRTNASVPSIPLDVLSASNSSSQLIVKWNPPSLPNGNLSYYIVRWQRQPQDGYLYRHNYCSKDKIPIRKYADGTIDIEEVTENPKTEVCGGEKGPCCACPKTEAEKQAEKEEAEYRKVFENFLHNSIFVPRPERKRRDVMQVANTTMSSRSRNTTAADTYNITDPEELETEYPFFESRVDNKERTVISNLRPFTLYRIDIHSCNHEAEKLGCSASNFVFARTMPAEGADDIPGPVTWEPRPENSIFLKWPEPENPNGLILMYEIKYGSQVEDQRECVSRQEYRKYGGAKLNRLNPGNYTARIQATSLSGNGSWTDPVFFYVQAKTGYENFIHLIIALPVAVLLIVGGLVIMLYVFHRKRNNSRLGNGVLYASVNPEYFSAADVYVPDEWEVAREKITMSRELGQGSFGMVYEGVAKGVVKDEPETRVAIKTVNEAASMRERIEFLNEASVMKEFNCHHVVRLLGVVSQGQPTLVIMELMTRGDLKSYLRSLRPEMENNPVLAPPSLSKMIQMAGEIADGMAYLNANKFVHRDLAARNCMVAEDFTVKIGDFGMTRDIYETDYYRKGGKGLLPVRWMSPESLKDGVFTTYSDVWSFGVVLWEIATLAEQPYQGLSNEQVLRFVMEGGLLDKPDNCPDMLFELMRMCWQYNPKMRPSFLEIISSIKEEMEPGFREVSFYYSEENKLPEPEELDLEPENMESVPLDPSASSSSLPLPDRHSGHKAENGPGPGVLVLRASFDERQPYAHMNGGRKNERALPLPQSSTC

[2] = Pharmacokinetic test in rats; format: in vivo, Sprague-Dawley rats; details: male, Sprague-Dawley, plasma, rat; for MRT: read-out: MRT
Description: 14 male Sprague-Dawley rats, weigh 200-220 g, were randomly divided into 4 groups with 4/3 in each group. The rats were intragastrically and intravenously administered with compound 7S and 8S respectively. The compounds were dissolved in normal saline containing 5% of DMSO and solubilized with 5% of tween-80 (Tween 80), and the final concentration of the sample was 1 mg/ml.
The rats were fasted 12 h before the test, free drinking water. They were fed 2 h after administration.
gavage administration: 0.25 h, 0.5 h, 1.0 h, 2.0 h, 3.0 h, 4.0 h, 6.0 h, 8.0 h and 24 h after administration;
intravenous administration: 5 min, 0.25 h, 0.5 h, 1.0 h, 2.0 h, 4.0 h, 6.0 h, 8.0 h and 24 h after administration;
0.3 ml venous blood was collected from the retrobulbar venous plexus of rats at the above time point, and placed in a heparinized tube and centrifuged at 11000 rpm for 5 min. The plasma was separated and frozen in a refrigerator at −20° C.
The concentrations of the compounds in rat plasma were measured by LC/MS/MS.
Pharmacokinetic parameters after administration were calculated using the non-compartmental model of the Phoenix 1.3 software (Pharsight, U.S.A.).
Peak concentration Cmax and peak time Tmax were the measured values;
The area under the curve of the drug concentration vs. time AUC0-t value: calculated according to trapezoidal rule; AUC0-∞=AUC0-t+Ct/ke, Ct is the plasma concentration at the last measurable time point, ke is the elimination rate constant;
Elimination half-life t1/2=0.693/ke;
Average retention time MRT=AUMC/AUC.
Clearance rate CL=D/AUC0-∞;
Volume of distribution at steady state Vss=CL×MRT

EBC-1 cells = assay: Inhibition of c-Met-mediated EBC-1 cell proliferation (SRB staining); format: cell-based; details: Homo sapiens, 72 hours treatment
Method in brief: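 MET-amplified EBC-1 NSCLC cells in log phase were seeded, cultured overnight, then exposed to compound in triplicate for 72 h. Growth was measured by TCA fixation, SRB staining and OD at 515 nm. IC50 reported as a range from the initial screening concentrations; experiment repeated twice.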

c-Met kinase = target: T1, c-Met kinase (Homo sapiens, UniProt P08581); assay: Inhibitory effect on c-Met kinase activity at molecular level (ELISA); format: biochemical;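 also: recombinant c-Met kinase domain with 5 µM ATP, 1 h at 37 °C, substrate phosphorylation detected by anti-phosphotyrosine PY99 ELISA at 490 nm versus DMSO negative control, ATP-free wells as blank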
T1 construct: c-Met kinase domain recombinant protein diluted with 49 μL of the reaction buffer was added
Description: Experiment for Preliminarily Evaluating the Inhibitory Effect on the Activity of Receptor Tyrosine Kinase c-Met at Molecular Level
After discarding the liquid in the wells, the plate was washed with T-PBS (0.1% Tween-20 in PBS) in an amount of 200 μL/well three times, each for 5 minutes. The ELISA plate was dried in an oven at 37° C. for 1-2 hours. 50 μl of adenosine triphosphate (ATP) solution diluted with reaction buffer (50 mM 4-hydroxyethylpiperazine ethanesulfonic acid (HEPES) pH 7.4, 50 mM MgCl2, 0.5 mM MnCl2, 0.2 mM Na3VO4, 1 mM dithiothreitol (DTT)) to a final concentration of 5 μM was added to each well. The compounds were diluted to an appropriate concentration with DMSO (1 μL/well) or a solution containing DMSO in a corresponding concentration (negative control well), and then c-Met kinase domain recombinant protein diluted with 49 μL of the reaction buffer was added therein to initiate the reaction, with two ATP-free control wells for each test. The plate was placed in a shaker (100 rpm) at 37° C. for reacting 1 hour, and washed with T-PBS three times. Primary antibody PY99 diluent was added in an amount of 100 μL/well to allow the reaction in a shaker at 37° C. for 0.5 hour, and then the plate was washed with T-PBS three times. Then the secondary antibody horseradish peroxidase labeled goat anti-mouse IgG diluent was added in an amount of 100 μL/well, and the plate was placed in a shaker at 37° C. for reacting 0.5 hour, and then washed with T-PBS three times. 2 mg/ml of o-phenylenediamine (OPD) coloring solution (diluted with 0.1 M citric acid-sodium citrate buffer (pH=5.4) containing 0.03% H2O2) was then added at 100 μL/well and reacted at 25° C. for 1-10 min with light blocked (ultrasound was required to dissolve OPD, the coloring solution was prepared when needed). The reaction was stopped by adding 2 M of H2SO4 in an amount of 50 μL/well, and a wavelength-adjustable microplate reader SPECTRA MAX 190 was read at 490 nm.
The inhibition rate of the sample was calculated by the following equation:

FGFR1 = FGFR1 (Homo sapiens, UniProt P11362); assay: Tyrosine kinase inhibition rate (ELISA), FGFR1; format: biochemical; details: 1 μM
[3] = po, intragastric (gavage) 10 mg/kg, mean

## CCN(CC)CCNC(=O)c1c(C)[nH]c(/C=C2\C(=O)Nc3ccc(F)cc32)c1C [Su11248, reference compound]
PDGFR-α
  inhibition at 1 µM: 54.8%
PDGFR-β
  inhibition at 1 µM: 55.6%
RET
  inhibition at 1 µM: 80.6%
Flt-1
  inhibition at 1 µM: 77.4%

## C[C@@H](Oc1cc(-c2cnn(C3CCNCC3)c2)cnc1N)c1c(Cl)ccc(F)c1Cl [PF2341066, Crizotinib, reference compound]
[1]; d0
  TV (mm^3, mean ± SD) d0: 123 ± 25 mm^3
  Weight (g) d0: 17.2 g
[1]; d21
  RTV (mean ± SD): 0.00 ± 0.00
  T/C (%): 0.00%
  TV (mm^3, mean ± SD) d21: 0 ± 0 mm^3
  Weight (g) d21: 19.6 g

## CN(C)C/C=C/C(=O)Nc1cc2c(Nc3ccc(F)c(Cl)c3)ncnc2cc1O[C@H]1CCOC1 [BIBW2992, reference compound]
ErbB4
  inhibition at 1 µM: 71.1%

## Nc1ncnc2c1c(-c1cccc(OCc3ccccc3)c1)cn2[C@H]1C[C@@H](CN2CCC2)C1 [AEW541, reference compound]
IGF1R
  inhibition at 1 µM: 70.9%

## O=C(Nc1ccc(F)cc1)C1(C(=O)Nc2ccc(Oc3ccnc4cc(OCCCN5CCOCC5)ncc34)c(F)c2)CC1 [Compound 8S]
[2]; oral, gavage 10 mg/kg vs intravenous 5 mg/kg, read-out: F (absolute bioavailability)
  bioavailability: 38.6%
[2]; [3]
  AUC(0-inf): 6870 ng·h/mL
  AUC(0-t): 6780 ng·h/mL
  Cmax: 2060 ng/mL
  Tmax: 1.25 h
  half-life: 1.49 h
[2]; intravenous 5 mg/kg, mean
  AUC(0-inf): 8810 ng·h/mL
  AUC(0-t): 8770 ng·h/mL
  clearance: 9.58 mL/min/kg
  half-life: 1.15 h
[2]; intravenous 5 mg/kg, mean, read-out: Vss
  Vd: 0.667 L/kg
[2]; iv, 5 mg/kg, intravenous 5 mg/kg, mean
  MRT: 1.17 h
[2]; po, 10 mg/kg, intragastric (gavage) 10 mg/kg, mean
  MRT: 2.71 h
EBC-1 cells
  IC50: 10 to 100 nM
c-Met kinase
  IC50: 1 to 10 nM

## AZD4547 [reference compound]
FGFR1
  Inhibtion rate (%) FGFR1: 100%
